Reference: PMC7503500, “A Structure-Activity Relationship Comparison of Imidazodiazepines Binding at Kappa, Mu, and Delta Opioid Receptors and the GABAA Receptor” (Molecules, 2020)
Read-outs that look alike come from different tables or passages of the source.

Key:
[1] = target: δ opioid receptor (DOR) (Homo sapiens, UniProt P41143); experiment: Radioligand competition binding, DOR ([3H]-DADLE), HEK293 cell homogenates; conditions: for inhibition at 10 µM: read-out: DOR % (percent inhibition), at 10,000 nM; for DOR % (percent inhibition): at 10,000 nM
[2] = target: κ opioid receptor (KOR) (Homo sapiens, UniProt P41145); experiment: Radioligand competition binding, KOR ([3H]-U69593), HEK293 cell homogenates; conditions: for inhibition at 10 µM: read-out: KOR % (percent inhibition), at 10,000 nM; for inhibition at 10 µM / KOR % (percent inhibition): [3H]-U69593; for KOR % (percent inhibition): at 10,000 nM
[3] = target: µ opioid receptor (MOR) (Homo sapiens, UniProt P35372); experiment: Radioligand competition binding, MOR ([3H]-DAMGO), HEK293 cell homogenates; conditions: [3H]-DAMGO; for inhibition at 10 µM: read-out: MOR % (percent inhibition), at 10,000 nM; for MOR % (percent inhibition): at 10,000 nM
[4] = system: synaptic benzodiazepine-sensitive receptors (BZR), GABAAR; experiment: 3H-flunitrazepam binding, rat brain homogenate; conditions: for BZR % (percent inhibition): at 10,000 nM; for Ki: read-out: BZR (Ki)
[5] = read-out: KOR (Ki), [3H]-U69593, HEK293 homogenates

| SMILES | inhibition at 10 µM [1] | Ki [2] | inhibition at 10 µM [2] | inhibition at 10 µM [3] | BZR % (percent inhibition) [4] | Ki [4] | DOR % (percent inhibition) [1] | KOR % (percent inhibition) [2] | Ki [2, 5] | MOR % (percent inhibition) [3] | Ki ([3]; read-out: MOR Ki, HEK293 homogenates) |
| --- | --- | --- | --- | --- | --- | --- | --- | --- | --- | --- | --- |
| C#Cc1ccc2c(c1)C(c1ccccc1F)=N[C@@H](C)c1c(C(=O)OC(C)C)ncn1-2 [GL-I-31] | 8% | 65 nM | 94% | 32% | 97% | 245 nM |  |  |  |  |  |
| C#Cc1ccc2c(c1)C(c1ccccc1F)=N[C@@H](C)c1c(C(=O)OCCC)ncn1-2 [GL-I-32] | 14% | 64 nM | 95% | 9% | 98% | 148 nM |  |  |  |  |  |
| C#Cc1ccc2c(c1)C(c1ccccc1F)=N[C@@H](C)c1c(C(=O)OC(C)(C)CC)ncn1-2 [GL-I-33] | 25% | 34 nM | 94% | 30% | 96% | 117 nM |  |  |  |  |  |
| C#Cc1ccc2c(c1)C(c1ccccc1F)=N[C@@H](C)c1c(C(=O)OCC(F)(F)F)ncn1-2 [GL-I-36] | 0% | 411 nM | 85% | 8% | 77% | 418 nM |  |  |  |  |  |
| C#Cc1ccc2c(c1)C(c1ccccc1F)=N[C@@H](C)c1c(C(=O)OC3CC3)ncn1-2 [GL-I-38] | 16% | 68 nM | 95% | 18% | 96% | 127 nM |  |  |  |  |  |
| C#Cc1ccc2c(c1)C(c1ccccc1F)=N[C@@H](C)c1c(C(=O)NC(C)(C)C)ncn1-2 [GL-I-41] | 10% | 39 nM | 97% | 40% | 90% | 140 nM |  |  |  |  |  |
| C#Cc1ccc2c(c1)C(c1ccccc1F)=N[C@@H](C)c1c(C(=O)NCC)ncn1-2 [GL-I-43] | 3% | 102 nM | 95% | 22% | 94% | 44 nM |  |  |  |  |  |
| C#Cc1ccc2c(c1)C(c1ccccc1F)=N[C@@H](C)c1c(C(=O)N(C)C)ncn1-2 [GL-I-54] | 11% | 788 nM | 78% | 18% | 94% | 90 nM |  |  |  |  |  |
| C#Cc1ccc2c(c1)C(c1ccccc1F)=N[C@@H](C)c1c(C(=O)NC3CC3)ncn1-2 [GL-I-55] | 24% | 150 nM | 93% | 17% | 95% | 20 nM |  |  |  |  |  |
| C#Cc1ccc2c(c1)C(c1ccccc1F)=N[C@@H](C)c1c(-c3nc(C)no3)ncn1-2 [GL-I-65] |  |  |  |  | 79% | 1150 nM | 7% | 88% | 222 nM | 2% |  |
| C#Cc1ccc2c(c1)C(c1ccccc1F)=N[C@@H](C)c1c(-c3nc(CC)no3)ncn1-2 [GL-I-66] |  |  |  |  | 80% | 654 nM | 2% | 92% | 212 nM | 28% |  |
| C#Cc1ccc2c(c1)C(c1ccccc1F)=N[C@@H](C)c1c(C(=O)SCC)ncn1-2 [GL-I-77] | 4% | 125 nM | 95% | 41% | 92% | 124 nM |  |  |  |  |  |
| CCOC(=O)c1ncn2c1[C@H](C)N=C(c1ccccc1F)c1cc(C3CC3)ccc1-2 [GL-I-78] |  |  |  |  | 76% | 352 nM | 41% | 96% |  | 32% |  |
| C#Cc1ccc2c(c1)C(c1ccccc1F)=N[C@@H](C)c1c(-c3nc(C(C)C)no3)ncn1-2 [GL-I-81] |  |  |  |  | 83% | 839 nM | 25% | 93% | 127 nM | 64% | 2920 nM |
| CCOC(=O)c1ncn2c1[C@@H](C)N=C(c1ccccn1)c1cc(Br)ccc1-2 [GL-II-06] | 9% | 401 nM | 79% | 11% | 81% | 556 nM |  |  |  |  |  |
| C#Cc1ccc2c(c1)C(c1ccccn1)=N[C@H](C)c1c(C(=O)OCC)ncn1-2 [GL-II-19] | 2% |  | 44% | 17% | 71% | 1140 nM |  |  |  |  |  |
| C#Cc1ccc2c(c1)C(c1ccccn1)=N[C@H](C)c1c(C(=O)O)ncn1-2 [GL-II-30] | 4% |  | 0% | 20% | 65% | 431 nM |  |  |  |  |  |
| C#Cc1ccc2c(c1)C(c1ccccn1)=N[C@H](C)c1c(C(=O)NC)ncn1-2 [GL-II-31] | 3% |  | 23% | 17% | 72% | 1700 nM |  |  |  |  |  |
| C#Cc1ccc2c(c1)C(c1ccccn1)=N[C@H](C)c1c(C(=O)OC)ncn1-2 [GL-II-32] | 0% |  | 35% | 32% | 63% | 1430 nM |  |  |  |  |  |
| C[C@H]1N=C(c2ccccn2)c2cc(Br)ccc2-n2cnc(C(=O)O)c21 [GL-II-51] | 0% |  | 11% | 0% | 84% | 181 nM |  |  |  |  |  |
| C#Cc1ccc2c(c1)C(c1ccccn1)=N[C@H](C)c1c(-c3nc(CC)no3)ncn1-2 [GL-II-54] |  |  |  |  | 66% | 2040 nM | 0% | 80% | 504 nM | 0% |  |
| C#Cc1ccc2c(c1)C(c1ccccc1F)=N[C@H](C)c1c(C(=O)N(C)C)ncn1-2 [GL-II-73] | 0% | 1190 nM | 58% | 6% | 75% | 506 nM |  |  |  |  |  |
| C#Cc1ccc2c(c1)C(c1ccccc1F)=N[C@H](C)c1c(C(=O)NCC)ncn1-2 [GL-II-74] | 0% | 194 nM | 86% | 10% | 84% | 68 nM |  |  |  |  |  |
| C#Cc1ccc2c(c1)C(c1ccccc1F)=N[C@H](C)c1c(C(=O)NC3CC3)ncn1-2 [GL-II-75] | 3% | 278 nM | 81% | 0% | 85% | 93 nM |  |  |  |  |  |
| C#Cc1ccc2c(c1)C(c1ccccc1F)=N[C@H](C)c1c(C(=O)N3CCCC3)ncn1-2 [GL-II-76] | 0% | 371 nM | 80% | 0% | 43% |  |  |  |  |  |  |
| C#Cc1ccc2c(c1)C(c1ccccn1)=NCc1c(C(=O)OCC)ncn1-2 [Hz-166] | 49% | 3820 nM | 60% | 6% |  |  |  |  |  |  |  |
